Legend:
[1] = test system: ryegrass, Italian; experiment: Test C postemergence; assay type: in vivo, Lolium multiflorum; details: 10 days, 0 to 100 scale (0 no effect, 100 complete control)
How it was run: (§1)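 Test material, in non-phytotoxic solvent with surfactant, was sprayed on the soil directly after seeding (preemergence) or on young plants of 2–10 cm with one to two leaves (postemergence). Greenhouse, 10 days; 0–100 visual control scale.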

[2] = test system: barnyardgrass; experiment: Test C preemergence; assay type: in vivo, Echinochloa crusgalli
How it was run: as §1

[3] = test system: galium; experiment: Test C postemergence; assay type: in vivo, Galium aparine; details: 10 days, 0 to 100 scale (0 no effect, 100 complete control)
How it was run: as §1

[4] = test system: rice; experiment: Test D flooded paddy test; assay type: in vivo, Oryza sativa; details: 250 g ai/ha, applied to paddy water, visual rating after 13 to 14 days, scale 0 to 100 (0 no effect, 100 complete control)
How it was run: (§2)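 Visual ratings from 0, meaning no effect, to 100, meaning complete control, were assigned against untreated controls 13 to 14 days after compounds were added to the floodwater of pots kept 3 cm deep, with plants at the 2-leaf stage.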

[5] = test system: ragweed; experiment: Test C preemergence; assay type: in vivo, Ambrosia artemisiifolia
How it was run: as §1

[6] = test system: soybean; experiment: Test C preemergence; assay type: in vivo, Glycine max
How it was run: as §1

[7] = test system: wheat; experiment: Test C preemergence; assay type: in vivo, Triticum aestivum
How it was run: as §1

[8] = test system: wheat; experiment: Test C postemergence; assay type: in vivo, Triticum aestivum; details: 10 days, 0 to 100 scale (0 no effect, 100 complete control)
How it was run: as §1

[9] = test system: barnyardgrass; experiment: Test D flooded paddy test; assay type: in vivo, Echinochloa crus-galli; details: 250 g ai/ha, applied to paddy water, visual rating after 13 to 14 days, scale 0 to 100 (0 no effect, 100 complete control)
How it was run: as §2

[10] = test system: pigweed, palmer; experiment: Test C preemergence; assay type: in vivo, Amaranthus palmeri
How it was run: as §1

[11] = test system: corn; experiment: Test C preemergence; assay type: in vivo, Zea mays
How it was run: as §1

[12] = test system: blackgrass; experiment: Test C preemergence; assay type: in vivo, Alopecurus myosuroides
How it was run: as §1

[13] = test system: oat, wild; experiment: Test C postemergence; assay type: in vivo, Avena fatua; details: 10 days, 0 to 100 scale (0 no effect, 100 complete control)
How it was run: as §1

[14] = test system: kochia; experiment: Test C postemergence; assay type: in vivo, Bassia scoparia; details: 10 days, 0 to 100 scale (0 no effect, 100 complete control)
How it was run: as §1

[15] = test system: oat, wild; experiment: Test C preemergence; assay type: in vivo, Avena fatua
How it was run: as §1

[16] = test system: kochia; experiment: Test C preemergence; assay type: in vivo, Bassia scoparia
How it was run: as §1

[17] = test system: soybean; experiment: Test C postemergence; assay type: in vivo, Glycine max; details: 10 days, 0 to 100 scale (0 no effect, 100 complete control)
How it was run: as §1

[18] = test system: green foxtail; experiment: Test C postemergence; assay type: in vivo, Setaria viridis; details: 10 days, 0 to 100 scale (0 no effect, 100 complete control)
How it was run: as §1

[19] = test system: sedge, umbrella; experiment: Test D flooded paddy test; assay type: in vivo, Cyperus difformis; details: 250 g ai/ha, applied to paddy water, visual rating after 13 to 14 days, scale 0 to 100 (0 no effect, 100 complete control)
How it was run: as §2

[20] = test system: barnyardgrass; experiment: Test C postemergence; assay type: in vivo, Echinochloa crusgalli; details: 10 days, 0 to 100 scale (0 no effect, 100 complete control)
How it was run: as §1

[21] = test system: blackgrass; experiment: Test C postemergence; assay type: in vivo, Alopecurus myosuroides; details: 10 days, 0 to 100 scale (0 no effect, 100 complete control)
How it was run: as §1

[22] = test system: ragweed; experiment: Test C postemergence; assay type: in vivo, Ambrosia artemisiifolia; details: 10 days, 0 to 100 scale (0 no effect, 100 complete control)
How it was run: as §1

[23] = test system: ryegrass, Italian; experiment: Test C preemergence; assay type: in vivo, Lolium multiflorum
How it was run: as §1

[24] = test system: corn; experiment: Test C postemergence; assay type: in vivo, Zea mays; details: 10 days, 0 to 100 scale (0 no effect, 100 complete control)
How it was run: as §1

[25] = test system: ducksalad; experiment: Test D flooded paddy test; assay type: in vivo, Heteranthera limosa; details: 250 g ai/ha, applied to paddy water, visual rating after 13 to 14 days, scale 0 to 100 (0 no effect, 100 complete control)
How it was run: as §2

[26] = test system: pigweed, palmer; experiment: Test C postemergence; assay type: in vivo, Amaranthus palmeri; details: 10 days, 0 to 100 scale (0 no effect, 100 complete control)
How it was run: as §1

[27] = test system: green foxtail; experiment: Test C preemergence; assay type: in vivo, Setaria viridis
How it was run: as §1

[28] = test system: horseweed; experiment: Test C postemergence; assay type: in vivo, Erigeron canadensis; details: 10 days, 0 to 100 scale (0 no effect, 100 complete control)
How it was run: as §1

[29] = 500 g ai/ha, preemergence, 0 to 100 scale (0 no effect, 100 complete control)
[30] = Preemergence, 125 g ai/ha, 0 to 100 scale, 0 no effect, 100 complete control

## Cc1ccc(-n2cnc(C(C)(C)C)n2)cc1C(=O)N1CC(C(F)(F)F)Oc2c(Cl)cccc21 (stereo not shown) [Compound 350]
[1]; 500 g ai/ha, postemergence
  Plant response rating, Ryegrass, Italian: 30
[1]; Postemergence, 125 g ai/ha
  Plant response rating, Ryegrass, Italian: 10
[2]; [29]
  Barnyardgrass plant response rating: 100
[2]; [30]
  Plant response rating, Barnyardgrass: 50
[3]; 500 g ai/ha, postemergence
  Plant response rating, Galium: 100
[3]; Postemergence, 125 g ai/ha
  Plant response rating, Galium: 80
[4]
  Plant response rating, Rice (Flood): 0
[5]; [29]
  Ragweed plant response rating: 60
[5]; [30]
  Plant response rating, Ragweed: 20
[6]; [29]
  Soybean plant response rating: 90
[6]; [30]
  Plant response rating, Soybean: 90
[7]; [29]
  Wheat plant response rating: 30
[7]; [30]
  Plant response rating, Wheat: 30
[8]; 500 g ai/ha, postemergence
  Plant response rating, Wheat: 10
[8]; Postemergence, 125 g ai/ha
  Plant response rating, Wheat: 10
[9]
  Plant response rating, Barnyardgrass (Flood): 0
[10]; [29]
  Pigweed, Palmer plant response rating: 100
[10]; [30]
  Plant response rating, Pigweed, Palmer: 100
[11]; [29]
  Corn plant response rating: 0
[11]; [30]
  Plant response rating, Corn: 0
[12]; [29]
  Blackgrass plant response rating: 50
[12]; [30]
  Plant response rating, Blackgrass: 20
[13]; 500 g ai/ha, postemergence
  Plant response rating, Oat, Wild: 10
[13]; Postemergence, 125 g ai/ha
  Plant response rating, Oat, Wild: 0
[14]; 500 g ai/ha, postemergence
  Plant response rating, Kochia: 90
[14]; Postemergence, 125 g ai/ha
  Plant response rating, Kochia: 70
[15]; [29]
  Oat, Wild plant response rating: 50
[15]; [30]
  Plant response rating, Oat, Wild: 30
[16]; [29]
  Kochia plant response rating: 80
[16]; [30]
  Plant response rating, Kochia: 50
[17]; 500 g ai/ha, postemergence
  Plant response rating, Soybean: 100
[17]; Postemergence, 125 g ai/ha
  Plant response rating, Soybean: 100
[18]; 500 g ai/ha, postemergence
  Plant response rating, Foxtail, Green: 80
[18]; Postemergence, 125 g ai/ha
  Plant response rating, Foxtail, Green: 30
[19]
  Plant response rating, Sedge, Umbrella (Flood): 0
[20]; 500 g ai/ha, postemergence
  Plant response rating, Barnyardgrass: 30
[20]; Postemergence, 125 g ai/ha
  Plant response rating, Barnyardgrass: 10
[21]; 500 g ai/ha, postemergence
  Plant response rating, Blackgrass: 20
[21]; Postemergence, 125 g ai/ha
  Plant response rating, Blackgrass: 10
[22]; 500 g ai/ha, postemergence
  Plant response rating, Ragweed: 50
[22]; Postemergence, 125 g ai/ha
  Plant response rating, Ragweed: 30
[23]; [29]
  Ryegrass, Italian plant response rating: 100
[23]; [30]
  Plant response rating, Ryegrass, Italian: 100
[24]; 500 g ai/ha, postemergence
  Plant response rating, Corn: 20
[24]; Postemergence, 125 g ai/ha
  Plant response rating, Corn: 10
[25]
  Plant response rating, Ducksalad (Flood): 0
[26]; 500 g ai/ha, postemergence
  Plant response rating, Pigweed, Palmer: 100
[26]; Postemergence, 125 g ai/ha
  Plant response rating, Pigweed, Palmer: 100
[27]; [29]
  Foxtail, Green plant response rating: 100
[27]; [30]
  Plant response rating, Foxtail, Green: 100
[28]; 500 g ai/ha, postemergence
  Plant response rating, Horseweed: 40
[28]; Postemergence, 125 g ai/ha
  Plant response rating, Horseweed: 40

From patent US20260262643A1, “HERBICIDAL BENZOXAZINES” (FMC CORPORATION, priority 2022, published 2026)
